Measured values published in patent publication US7166296B2, “Pharmaceutical formulations and ligands for use therein; mimetics for UEA-1” (Sarlan, Ltd., priority 2001, dated 2007).
≈ marks a conversion by molar mass, not a printed value. Each block holds one compound with its values, some of them ahead of it.

How the values were obtained:
[1] = system: UEA-1 binding sites on Caco-2 cell membrane preparations; assay: Single tier competition assay: inhibition of biotinylated UEA-1 binding, compound and biotinylated UEA-1 incubated together; set-up: species or system human; details: for Av % Inhibition / Avg % Inhibtion: Single Tier Assay; for Av % Inhibition: library MSI 22; for Avg % Inhibtion: library MSI 26
Protocol: (§1) The epithelial cell binding ability of compounds and mixtures obtained from synthetic combinatorial libraries was determined by competition assays. These assays were set up to measure the inhibition of binding of biotinylated UEA-1 to membrane preparations of the epithelial cell line Caco-2 (colon carcinoma cells-2), by compounds and mixtures of the combinatorial libraries. This cell line is a conventional model for epithelial cells.
(§2) Two competition inhibition assays were used in this case, namely single tier and two tier assays. These assays differed from each other in that in the single tier assay, the mixtures/compounds and the biotinylated UEA-1 were incubated together with the Caco-2 cell membrane preparations, while in case of the two-tier assay, the mixture/compounds were allowed to incubate alone with the cell membranes in the absence of biotinylated UEA-1, which was added in the next step. Addition of the extra step in the two-tier assay was to ensure that the compounds inhibiting the binding of biotinylated UEA-1 to the Caco-2 cell membranes were doing so by themselves binding to surface receptors on the Caco-2 cells and not to the biotinylated UEA-1. Each assay will be described in detail.
(§3) • 1. Confluent Caco-2 cell monolayers (grown in 75 cm^2 flasks for up to 1 week at 37° C. and 5% CO2) were washed twice in Dulbecco's PBS (DPBS). • 2. Cell monolayers were treated with 10 mM EDTA-DPBS for 5–10 min at 37° C. and cells were harvested by centrifugation at 1000 rpm for 5 min. • 3. Cells were washed 3 times in DPBS. • 4. […] The cells were homogenised for 30 sec. • 6. The homogenates were centrifuged in hard walled tubes at 40,000 rpm for 45 min at 4° C. • 7. […] The supernatant was removed and stored on ice. The procedure was repeated adding the second supernatant to the first. • 8. The protein concentration was determined using e.g. a Bio-Rad protein assay. • 9. All fractions were stored at −80° C. prior to use. Single Tier Assays: • 1. 96-well microtiter plates were coated with membrane preparations of Caco-2 cells either by allowing them to incubate on the plates for 2½ hours at room temperature or by incubating them overnight at 4° C. 100 μl of 10 μg/ml (in 0.05 M carbonate buffer, pH 9.6) of membrane preparation was added to each well. • 2. The plates were flicked out, patted dry and blocked with bovine serum albumin (BSA)/DPBS (200 μl/well) for 1 to 4 hours at room temperature after which they were washed three times in water. • 3. […] Control wells were also set up in which the Caco-2 cell membrane preparations were incubated with unconjugated UEA-1. […] Following overnight incubation the plates were washed thoroughly (3–6 times). The plates were flicked out, patted dry and biotinylated UEA-1 was detected with commercial Streptavidin conjugated to horseradish peroxidase (HRP) (CalBiochem). […] The plates were left to incubate for an hour at room temperature. • 6. The plates were then washed 3–6 times and the biotin-streptavidin binding was detected by adding an HRP substrate OPD (orthophenyl diamine) to each well. 100 μl/well of this substrate at a final concentration of 1.6 mg/ml was added to each well. Before adding to the wells, this substrate was activated by addition of 50 μl of 3% H2O2 per plate and the reaction was allowed to develop in the dark. • 7. The reaction was stopped by adding 50 μl of 4 N H2SO4 to each well after approximately 5–10 minutes or when sufficient colour had developed. The OD490 (absorbance at 490 nm) of each well was measured using a conventional 96 well plate reading spectrophotometer. Two Tier Assays: • 1. 96 well plates were coated with Caco-2 cell membrane preparations in the same manner as described in the single tier assay. • 2. […] 100 μl at these final concentrations were added to each well. • 4. The plates were then left to incubate overnight, a step that would allow the mixtures and compounds to interact with the Caco-2 cell membranes without the presence of the competitor (biotinylated UEA-1) itself. • 5. […]

[2] = system: UEA-1 binding sites on Caco-2 cell membrane preparations; assay: Two tier competition assay: compound incubated alone with membranes, biotinylated UEA-1 added in next step; set-up: species or system human; details: for Av % Inhibition / Avg % Inhibition: Two Tier Assay; for Av % Inhibition: library MSI 22; for Avg % Inhibition: library MSI 26
Protocol: as §1, §2, §3

[3] = library MSI 27, read-out: Single Tier Assay IC50
[4] = library MSI 27, read-out: Two Tier Assay IC50
[5] = Table 8, galloyl constructs, read-out: IC 50 (uM) 1st tier (converted)
[6] = Table 8, galloyl constructs, read-out: IC 50 (uM) 2nd tier

SMILES: CNC[C@@H](Cc1ccc(OC(=O)OCc2ccccc2Br)cc1)N(C)C[C@H](CC1CCCCC1)NC(=O)c1cc(OC)c(OC)c(OC)c1
Av % Inhibition ([1]; 62.5 μg/ml): −0% | Av % Inhibition ([1]; 250 μg/ml): −11.7% | Av % Inhibition ([2]; 62.5 μg/ml): 39.7% | Av % Inhibition ([2]; 250 μg/ml): 58.9%

SMILES: CCOc1ccc(C[C@H](CNC)N(C)C[C@H](CC2CCCCC2)NC(=O)c2cc(OC)c(OC)c(OC)c2)cc1
Av % Inhibition ([1]; 62.5 μg/ml): −9% | Av % Inhibition ([1]; 250 μg/ml): −55.7% | Av % Inhibition ([2]; 62.5 μg/ml): 49.8% | Av % Inhibition ([2]; 250 μg/ml): 43.8%

SMILES: NC(=O)c1cc(O)c(O)c(O)c1 [3,4,5-trihydroxybenzamide, reference compound]
Avg % Inhibtion ([1]; 62.5 μg/ml): 41.7% | Avg % Inhibtion ([1]; 250 μg/ml): 21% | Avg % Inhibition ([2]; 62.5 μg/ml): 10.7% | Avg % Inhibition ([2]; 250 μg/ml): 41.4%

SMILES: NC(=O)c1cc(O)cc(O)c1 [3,5-dihydroxybenzamide, reference compound]
Avg % Inhibtion ([1]; 62.5 μg/ml): −1% | Avg % Inhibtion ([1]; 250 μg/ml): 2.4% | Avg % Inhibition ([2]; 62.5 μg/ml): −7% | Avg % Inhibition ([2]; 250 μg/ml): −2%

SMILES: O=C(O)c1cc(O)cc(O)c1 [3,5-dihydroxybenzoic Acid, reference compound]
Avg % Inhibtion ([1]; 62.5 μg/ml): 0% | Avg % Inhibtion ([1]; 250 μg/ml): 1.1% | Avg % Inhibition ([2]; 62.5 μg/ml): −5% | Avg % Inhibition ([2]; 250 μg/ml): −7%

IC50 [1, 3]: 495 µM | IC50 [2, 4]: 495 µM
SMILES: COc1cc(C(=O)NCCCCC(NC(=O)c2cc(OC)c(O)c(OC)c2)C(N)=O)cc(OC)c1O (centres unmarked) [Cpd 1]

SMILES: COc1ccc(C(=O)NCCCCC(NC(=O)c2ccc(OC)c(OC)c2)C(N)=O)cc1OC (centres unmarked) [Cpd 2]
Single Tier Assay IC50 ([1]; library MSI 27): 128.20 µg/mL | IC50 [1, 3]: 271 µM | Two Tier Assay IC50 ([2]; library MSI 27): 96.44 µg/mL | IC50 [2, 4]: 204 µM

IC50 [1, 3]: 405 µM | IC50 [2, 4]: 405 µM
SMILES: CCOc1cc(C(=O)NCCCCC(NC(=O)c2cc(OCC)c(OCC)c(OCC)c2)C(N)=O)cc(OCC)c1OCC (centres unmarked) [Cpd 3]

SMILES: COc1cc(C(=O)NCCCCC(NC(=O)c2cc(OC)c(OC)c(OC)c2)C(N)=O)cc(OC)c1OC (centres unmarked) [Cpd 4]
IC50 [1, 3]: 469 µM | IC50 [2, 4]: 469 µM

SMILES: NC(=O)C(CCCCNC(=O)c1cc(O)c(O)c(O)c1)NC(=O)c1cc(O)c(O)c(O)c1 (centres unmarked) [Cpd 6]
IC 50 (ug/ml) 1st tier ([1]; Table 8, galloyl constructs): 11 µg/mL (≈ 24.5 µM) | IC50 [1, 5]: 24 µM | Single Tier Assay IC50 ([1]; library MSI 27): 18.97 µg/mL | IC50 [1, 3]: 42.2 µM | IC 50 (ug/ml) 2nd tier ([2]; Table 8, galloyl constructs): 8 µg/mL (≈ 17.8 µM) | IC50 [2, 6]: 17 µM | Two Tier Assay IC50 ([2]; library MSI 27): 12.97 µg/mL | IC50 [2, 4]: 28.9 µM

IC50 [1, 3]: 649 µM | IC50 [2, 4]: 649 µM
SMILES: NC(=O)C(CCCCNC(=O)c1ccc(O)cc1)NC(=O)c1ccc(O)cc1 (centres unmarked) [Cpd 7]

Single Tier Assay IC50 ([1]; library MSI 27): 125.00 µg/mL | IC50 [1, 3]: 340 µM | Two Tier Assay IC50 ([2]; library MSI 27): 101.20 µg/mL | IC50 [2, 4]: 275 µM
SMILES: COc1cc(C(=O)NCCCCC(NC(C)=O)C(N)=O)cc(OC)c1O (centres unmarked) [Cpd 9]

IC50 [1, 3]: 590 µM | IC50 [2, 4]: 590 µM
SMILES: CCOc1cc(C(=O)NCCCCC(NC(C)=O)C(N)=O)cc(OCC)c1OCC (centres unmarked) [Cpd 11]

SMILES: COc1cc(C(=O)NCCCCC(NC(C)=O)C(N)=O)cc(OC)c1OC (centres unmarked) [Cpd 12]
IC50 [1, 3]: 655 µM | IC50 [2, 4]: 655 µM

SMILES: CC(=O)NC(CCCCNC(=O)c1cc(O)c(O)c(O)c1)C(N)=O (centres unmarked) [Cpd 14]
IC 50 (ug/ml) 1st tier ([1]; Table 8, galloyl constructs): 72 µg/mL (≈ 212 µM) | IC50 [1, 5]: 54 µM | Single Tier Assay IC50 ([1]; library MSI 27): 129.70 µg/mL | IC50 [1, 3]: 382 µM | IC 50 (ug/ml) 2nd tier ([2]; Table 8, galloyl constructs): 211 µg/mL (≈ 622 µM) | IC50 [2, 6]: 160 µM | Two Tier Assay IC50 ([2]; library MSI 27): 91.52 µg/mL | IC50 [2, 4]: 270 µM
